# Data from US20130315920A1, “Cross Protective Epitopes of Aspergillus Fumigatus and Candida Albicans” (Cell Medica Limited, priority 2010, published 2013).
# Assays:
# inactivated A. fumigatus = test: Peptide-specific T-cell clones stimulated with DC incubated with inactivated A. fumigatus (resting conidia, germinating conidia, hyphae); format: cell-based, Aspergillus fumigatus
# Excerpt: Response of Crf1 peptide-specific T-cell clones to stimulation with native A. fumigatus antigen. (a) T-cell clones from different donors specific for p1, p22, p27, p41 and p59 that responded to stimulation with Crf1 mRNA-transfected DC were stimulated with A. fumigatus cell extract or (b) inactivated germinating A. fumigatus conidia. IFN-γ values are given after subtraction of the negative control. Shown is 1 clone per antigen and donor (representative experiments, n≧3). (c) Crf1 p41-specific T-cell clones respond to stimulation with DC incubated overnight with germinating A. fumigatus conidia or hyphae but not to resting conidia. T cell clones were stimulated with A. fumigatus inactivated 0 h (resting conidia), 6 h (germinating conidia) or 12 h (hyphae) after incubation in growth medium.
# (§1) T-cell cloning was performed as described in below. T-cell clones were stimulated either with mature peptide-pulsed (2.5 μg/ml) or Crf1 mRNA-transfected DC, immature DC incubated for 24 h with A. fumigatus cell extract (20 μg/ml) in the presence of cytokine maturation cocktail or immature DC incubated for 24 h with inactivated A. fumigatus or C. albicans fungus (multiplicity of infection 3) in a R:S ratio of 5:1.
# Fungal extracts were generated as described^48 and protein content was measured by Bradford protein assay (Perbio Science) according to the manufacturers' instructions. […]
# [1] = system: DC transfected with Crf1 mRNA; test: Peptide-specific T-cell clones stimulated with Crf1 mRNA-transfected DC (IFN-γ); format: cell-based, human
# Description: as §1
# For T-cell cloning 6×10^7 PBMC were stimulated overnight with 5 μg/ml peptide and 1 μg/ml CD40 antibody (HB14, Miltenyi Biotec). Cells were labelled with anti-CD154^+ microbeads and isolated by magnetic cell separation according to the manufacturers' instructions (Miltenyi Biotec). Selected cells were cultured with γ-irradiated autologous PBMC (ratio 1:50) and cytokines were supplemented as described above. On d14, T-cell clones were generated by limiting dilution in 96-well plates and expanded using the rapid expansion protocol previously described^50.
# A. fumigatus Crf1 cDNA was cloned into the pGEM4Z vector (provided by Kris Thielemans) and in vitro transcribed using mMESSAGE mMACHINE T Ultra Kit (Ambion) according to the manufacturers' instructions. Crf1 was fused to the N-terminal domain of the invariant chain to enhance antigen presentation by MHC class II^51,52. Maturated DC were electroporated with 15 μg mRNA at 300V and 150 μF using the EQUIBIO EasyjecT Plus® apparatus (EQUIBIO) in serum-free medium (OptiMEM, Gibco)^41.
# CD4^+ spleen cells = test: Proliferation assay of purified CD4+ spleen cells ([3H]thymidine); format: cell-based; details: mice untreated or vaccinated with A. fumigatus or C. albicans; 5 μg/mL peptide, 3 days
# Description: A. fumigatus Crf1 protein mediates cross-protection to C. albicans. Mice were injected intranasally with resting A. fumigatus conidia 14 days before infection, or with purified Crf1 protein and murine CpG oligodeoxynucleotide 1862 14, 7 and 3 days before intragastric infection with C. albicans. Note (a) the reduced inflammatory cell recruitment and acanthosis in mice vaccinated with A. fumigatus conidia or Crf1 protein as opposed to control mice shown in FIG. 5a and c and (b) the increase in protective TH1 and regulatory T-cell transcription factors and cytokine levels. […] The results are expressed as mean cpm±SEM of triplicate cultures. […]
# DC (1×10^5) and CD4^+ T-cells (5×10^5) were purified from spleens of mice untreated or vaccinated with A. fumigatus or C. albicans, by magnetic separation of MicroBeads (Miltenyi Biotec) and cocultured in round-bottom, 96-well plates in 200 μl complete medium, with and without anti-CD3ε antibody (clone 145-2C11; BD PharMingen), heat-inactivated Aspergillus or Candida (at a cell:fungi ratio of 2:1), 5 μg/mL of Crf1 p41 peptide. […] Incorporation into cellular DNA was measured by liquid scintillation counting. The results are expressed as mean cpm±SEM of triplicate cultures.
sequence,measurement,setting,value
"HTYTIDWTKDAVTWS (Peptide found in the Crf1 protein of Aspergillus fumigatus) [p41, Crf1 aa 161-175]",Activation of peptide-specific T-cell clones by resting conidia,inactivated A. fumigatus; A. fumigatus inactivated 0 h (resting conidia),resting conidia were not able to activate peptide-specific T-cell clones
same,Activation of peptide-specific T-cell clones by germinating conidia and hyphae,inactivated A. fumigatus; A. fumigatus inactivated 6 h (germinating conidia) or 12 h (hyphae),germinating conidia induced similar T-cell responses as outgrown hyphae
same,Response of peptide-specific CD4+ T-cell clones to endogenously processed antigen,[1]; all donors,All generated p41-specific CD4^+ T-cell clones were activated readily
same,Number of T-cell clones reacting to Crf1 mRNA-transfected DC/number of peptide-specific T-cell clones,[1]; donor 1,11/11
same,Number of T-cell clones reacting to Crf1 mRNA-transfected DC/number of peptide-specific T-cell clones,[1]; donor 2,16/16
same,Number of T-cell clones reacting to Crf1 mRNA-transfected DC/number of peptide-specific T-cell clones,[1]; donor 4,2/2
same,Number of T-cell clones reacting to Crf1 mRNA-transfected DC/number of peptide-specific T-cell clones,[1]; donor 7,4/4
same,Number of T-cell clones reacting to Crf1 mRNA-transfected DC/number of peptide-specific T-cell clones,[1]; donor 10,3/3
same,Antigen-specific proliferation of CD4+ spleen cells,CD4^+ spleen cells,cross-protection could be mediated by T-cells recognizing the same epitope p41
